From article PMC9404985, “Development of Dicationic Bisguanidine-Arylfuran Derivatives as Potent Agents against Gram-Negative Bacteria” (Antibiotics, 2022)

What was measured:
[1] = test system: K. pneumoniae (CCUG #58547); assay: Antibacterial activity against isolates (Omnilog, Biolog redox dye); assay type: cell-based, Klebsiella pneumoniae; details: for EC50 / EC90: Klebsiella pneumoniae, CCUG58547, ca-MH broth, 24 h, 37 °C; for Selectivity index K. pneumoniae (CCUG #58547): SI = ((EC50 MCF-7 + EC50 HepG2)/2)/EC50 bacterial strain
Protocol: (§1) The antibacterial activities of eight compounds (1, 3, 4, 6, 8, 10, 16, and 17) were tested against 10 different isolates of Gram-negative bacteria from human and other sources, two E. coli (CCUG #67180 and CCUG #17620/ATCC #25922, control strain), two K. pneumoniae (CCUG #58547 and CCUG #225T), two P. aeruginosa (CCUG #17619 and CCUG #59347), two A. baumannii (CCUG #57035 and CCUG #57250), E. cloacae (CCUG #6323T), and E. hormaechei (CCUG #58962) in a 96-well plate format. […] Bacterial mass from the ten isolates grown overnight on horse blood or Mueller–Hinton agar plates was suspended in ca-MH and adjusted to a final inoculum cell density of ~5 × 10^5 CFU/mL. For all assays, Biolog redox dye A diluted 100× from the stock solution was used for measurements of all ten isolates (up to a total volume of 120 µL per well). All plates included one well per isolate with only inoculum and dye but no test compound (i.e., positive control) and one well per isolate with inoculum, dye and DMSO diluted 1667×, corresponding to the DMSO concentration in the wells with the highest concentration of test compound. All measurements were performed using the Omnilog microplate reader (Biolog, Hayward, CA, USA) where the 96-well plates were read at 15 min intervals for a total of 24 h at 37 °C.

[2] = test system: A. baumannii (CCUG #57035); assay: as above; assay type: cell-based, Acinetobacter baumannii; details: for EC50 / EC90: Acinetobacter baumannii, CCUG57035, ca-MH broth, 24 h, 37 °C; for Selectivity index A. baumannii (CCUG #57035): SI = ((EC50 MCF-7 + EC50 HepG2)/2)/EC50 bacterial strain
Protocol: as §1

[3] = Cytotoxicity assay (PrestoBlue) MCF-7; assay type: cell-based; details: human, MCF-7 cells (breast cancer cell line), 24 h incubation
Protocol: The cytotoxicity levels of all compounds were evaluated against human Michigan Cancer Foundation-7 (MCF-7) and Hepatoma G2 cell line (HepG2) cell lines. MCF-7 is an extensively characterized breast cancer cell line isolated in 1970 [41], while HepG2 cells were derived from a hepatoma in 1975 [42]. Both cell lines grow robustly during in vitro culture and have been widely used for cytotoxicity testing. Cells of hepatic origin, such as HepG2, are of particular relevance for toxicity studies as many drugs accumulate in the liver during metabolic conversion. Cells were grown in Dulbecco’s Modified Eagle Medium supplemented with 10% fetal calf serum and kept in exponential growth, as previously reported. Before the assay, cells were reseeded into 96-well microtiter plates at a density allowing continued exponential growth and let to settle for 24 h. The compounds were added from a stock solution in DMSO, for a final concentration of 0.3% v/v of the solvent in the culture medium. After 24 h of incubation in presence of the compound, cell viability was assayed using PrestoBlue Cell Viability Reagent (resazurin-based solution, ThermoFisher, Waltham, MA, USA) according to the manufacturer’s instructions. […] Each assay contained a DMSO control at the equivalent starting concentration, positive control (uninhibited cell growth) and negative control (cell medium only). Survival was expressed as percentage of the solvent-only control. […] The Selectivity Index (SI) for each compound and bacterial strain was calculated as the ratio between the mean of the EC50 values for the two human cell lines and the EC50 for the bacterial strain in question ((EC50 MCF-7 + EC50 HepG2)/2)/EC50 bacterial strain).

[4] = test system: E. coli (CCUG #17620/ ATCC #25922); assay: Antibacterial activity against isolates (Omnilog, Biolog redox dye); assay type: cell-based, Escherichia coli; details: for EC50 / EC90: Escherichia coli, ca-MH broth, 24 h, 37 °C; for Selectivity index E. coli (CCUG #17620/ ATCC #25922): SI = ((EC50 MCF-7 + EC50 HepG2)/2)/EC50 bacterial strain
Protocol: (§2) The antibacterial activities of eight compounds (1, 3, 4, 6, 8, 10, 16, and 17) were tested against 10 different isolates of Gram-negative bacteria from human and other sources, two E. coli (CCUG #67180 and CCUG #17620/ATCC #25922, control strain), two K. pneumoniae (CCUG #58547 and CCUG #225T), two P. aeruginosa (CCUG #17619 and CCUG #59347), two A. baumannii (CCUG #57035 and CCUG #57250), E. cloacae (CCUG #6323T), and E. hormaechei (CCUG #58962) in a 96-well plate format. The compounds to test were 3-fold diluted in six steps in cation-adjusted Mueller-Hinton (ca-MH) broth to final concentrations spanning from 30 to 0.12 µM, i.e., a 1667–416,667 times dilution from the 50 mM stocks. Bacterial mass from the ten isolates grown overnight on horse blood or Mueller–Hinton agar plates was suspended in ca-MH and adjusted to a final inoculum cell density of ~5 × 10^5 CFU/mL. For all assays, Biolog redox dye A diluted 100× from the stock solution was used for measurements of all ten isolates (up to a total volume of 120 µL per well). All plates included one well per isolate with only inoculum and dye but no test compound (i.e., positive control) and one well per isolate with inoculum, dye and DMSO diluted 1667×, corresponding to the DMSO concentration in the wells with the highest concentration of test compound. All measurements were performed using the Omnilog microplate reader (Biolog, Hayward, CA, USA) where the 96-well plates were read at 15 min intervals for a total of 24 h at 37 °C.

[5] = test system: E. coli (CCUG #67180); assay: as above; assay type: cell-based, Escherichia coli; details: for EC50 / EC90: Escherichia coli, ca-MH broth, 24 h, 37 °C; for EC50: CCUG67180; for Selectivity index E. coli (CCUG #67180): SI = ((EC50 MCF-7 + EC50 HepG2)/2)/EC50 bacterial strain; for EC90: CCUG67180, 24 h
Protocol: as §2

[6] = test system: P. aeruginosa (CCUG #17619); assay: as above; assay type: cell-based, Pseudomonas aeruginosa; details: for EC50 / EC90: Pseudomonas aeruginosa, CCUG17619, ca-MH broth, 24 h, 37 °C; for Selectivity index P. aeruginosa (CCUG #17619): SI = ((EC50 MCF-7 + EC50 HepG2)/2)/EC50 bacterial strain
Protocol: as §2

[7] = test system: P. aeruginosa (CCUG #59347); assay: as above; assay type: cell-based, Pseudomonas aeruginosa; details: for EC50 / EC90: Pseudomonas aeruginosa, CCUG59347, ca-MH broth, 24 h, 37 °C; for Selectivity index P. aeruginosa (CCUG #59347): SI = ((EC50 MCF-7 + EC50 HepG2)/2)/EC50 bacterial strain
Protocol: as §1

[8] = test system: E. coli MG1655 (CGSC #6300); assay: Antibacterial resazurin assay, laboratory strain; details: for EC50 / EC90: Escherichia coli, MG1655, 18 h; for EC50: read-out: Eco EC50; for EC90: read-out: Eco EC90; for Selectivity index E. coli: mean of MCF-7 and HepG2 EC50 over bacterial EC50, laboratory strain

Row | SMILES | EC50 [1] | EC90 [1] | Selectivity index K. pneumoniae (CCUG #58547) [1] | EC50 [2] | EC90 [2] | EC50 at 24 h [3] | EC50 [4] | EC90 [4] | Selectivity index E. coli (CCUG #17620/ ATCC #25922) [4] | EC50 [5] | Selectivity index E. coli (CCUG #67180) [5] | EC50 [6] | EC90 [6] | Selectivity index P. aeruginosa (CCUG #17619) [6] | EC50 [7] | EC90 [7] | EC50 [8] | EC90 [8] | Selectivity index E. coli [8] | EC90 [5] | further results
1 | N=C(N)Nc1ccc(-c2ccc(-c3ccc(NC(=N)N)cc3)o2)cc1 [Compound 3] | 5.6 µM | 8.3 µM | 22.1 | 1.6 µM | 2.4 µM | 64.5 µM | 1.6 µM | 2.2 µM | 76.6 | 5.3 µM | 23.7 | 9 µM | 11.1 µM | 13.8 | 5.2 µM | 8.1 µM | 80.4 µM | 174 µM | 1.5 | – | Selectivity index P. aeruginosa (CCUG #59347) [7]: 24.1
2 | Cc1cc(NC(=N)N)ccc1-c1ccc(-c2ccc(NC(=N)N)cc2C)o1 [Compound 4, 2,5-Bis(4-guanidino-2-methylphenyl)furan] | 17.1 µM | 22.4 µM | 4.4 | 16 µM | 23.5 µM | > 100 µM | 11.3 µM | 18.3 µM | 6.7 | 23.1 µM | 3.3 | 17.9 µM | 25.4 µM | 4.2 | 66.8 µM | 77 µM | 48.9 µM | 80.8 µM | 1.5 | 25.3 µM | Selectivity index A. baumannii (CCUG #57035) [2]: 4.7; Selectivity index P. aeruginosa (CCUG #59347) [7]: 1.1
3 | COc1cc(NC(=N)N)ccc1-c1ccc(-c2ccc(NC(=N)N)cc2OC)o1 [Compound 6, 2,5-Bis(4-guanidino-2-methoxyphenyl)furan] | 13 µM | 13.7 µM | 11.1 | 6.8 µM | 11 µM | 74.7 µM | 6.2 µM | 7.5 µM | 23.1 | 63.4 µM | 2.3 | 24.6 µM | 28.7 µM | 5.9 | 54.8 µM | 65.3 µM | 35.7 µM | 76.3 µM | 4.0 | 74.4 µM | Selectivity index A. baumannii (CCUG #57035) [2]: 21.3; Selectivity index P. aeruginosa (CCUG #59347) [7]: 2.6
4 | COC(=O)c1cc(NC(=N)N)ccc1-c1ccc(-c2ccc(NC(=N)N)cc2C(=O)OC)o1 [Compound 8, 2,5-Bis(4-guanidino-2-(methylcarboxy)phenyl)furan] | 10.3 µM | 13.3 µM | 23.6 | 5.2 µM | 7 µM | 81.6 µM | 6 µM | 8.2 µM | 40.5 | 53.4 µM | 4.6 | > 200 µM | > 200 µM | – | > 200 µM | > 200 µM | 95.4 µM | 129 µM | 2.5 | 67.5 µM | Selectivity index A. baumannii (CCUG #57035) [2]: 47.2
5 | N=C(N)NCc1ccc(-c2ccc(-c3ccc(CNC(=N)N)cc3)o2)cc1 [Compound 10, 2,5-Bis(4-guanidinomethylphenyl)furan] | > 200 µM | > 200 µM | – | > 200 µM | > 200 µM | 48.6 µM | 151 µM | 179 µM | 0.6 | 188 µM | 0.5 | > 200 µM | > 200 µM | – | > 200 µM | > 200 µM | 73.2 µM | 108 µM | 1.3 | > 200 µM | –
